Data set [1] is described as follows: Solubility of PAP prodrugs in 0.1N HCl. In kind it is physicochemical. Particulars: for solubility: simulated gastric fluid.
The next data set deals with dogs. Kind of data set: Emesis in dogs after oral TID dosing. The note with it: dogs (1 male/1 female), oral gavage TID, 24.8 mg/kg phenazopyridine base equivalent per dose. Type of data set: in vivo. Here is the method: Dogs (1 male/1 female) were dosed by oral gavage 3 times (TID), once every 8 hours, with 40 mg/kg Gly-PAP or 29 mg/kg phenazopyridine HCl (doses contained an equivalent amount of 24.8 mg/kg phenazopyridine base). […] Results showing reduction of the GI side effect of emesis are illustrated in FIG. 18.

Data set [2] in a line: Pharmacokinetics of PAP and intact Gly-PAP in dogs (plasma and urine) after oral gavage. In kind it is in vivo. Here is the method: Pharmacokinetics for PAP and Gly-PAP (intact prodrug) were assessed in dogs following administration by oral gavage of mg/kg doses. Blood (approximately 2 mL) was collected from a jugular vein into tubes containing lithium heparin anticoagulant predose and at 0.083, 0.25, 0.5, 1, 2, 4, 8, 12, and 24 hours postdose. Urine was collected into plastic containers surrounded by wet ice predose (−18 to 0) and 0 to 24 hours postdose. The volume of each sample was recorded. Plasma and urine samples were assayed for PAP and Gly-PAP by LC-MS-MS.

Data set [3] in a line: Pharmacokinetics of PAP and intact Gly-PAP in male rats after oral gavage. Type of data set: in vivo. As for the experimental part: Pharmacokinetics for PAP and Gly-PAP (intact prodrug) were assessed in male rats following administration by oral gavage of mg/kg doses. Rats were fasted overnight prior to dosing. Blood samples were withdrawn at 0.25, 0.5, 1, 2, 4, 6, and 24 hours. The whole blood was centrifuged immediately, and supernatant (plasma) was collected. The plasma samples were assayed for PAP and Gly-PAP by LC-MS-MS.

Data set [4] can be described thus: Oral bioavailability of PAP prodrugs in rats (plasma PAP by LC-MS-MS). In kind it is in vivo. Here is the method:
The oral bioavailability of PAP (phenazopyridine) prodrugs was evaluated in healthy rats. All the PAP amide (amino acid derivatives) bases were dissolved in 0.1N HCl (the same result can be obtained with a lower molarity), while the carbamates were dissolved in PEG-400 due to the very poor aqueous solubility of the PAP-carbamates. In general, all of the amino acid amide derivatives of PAP had higher water solubility than those of the PAP-carbamates. In another PK study, PAP.HCL salt, Gly-PAP.HCl salt and Gly-PAP.mesylate salt were dissolved in water, affording a clear solution in each case prior to oral administration.
(§1) The rats were fasted overnight prior to dosing. Appropriate amount of each compound was administered via gastric gavages, and at predetermined time (1, 2, 4, 6, and 24 h) blood samples were withdrawn from the rats. The whole blood was centrifuged immediately, and supernatant (plasma) was collected. The plasma samples were assayed for PAP using LC-MS-MS.

In another data set the test system is female mice. The note with it: cited from earlier work.
The nature of data set [5]: PAP pharmacokinetics in rats after oral Gly-PAP salt forms. In kind it is in vivo. The note with it: PAP in rat plasma, 2.5 mg/kg PAP base equivalent (2.8 for free base). Here is the method: The oral bioavailability of PAP (phenazopyridine) prodrugs was evaluated in healthy rats.
as §1
The pharmacokinetics of various salts of Gly-PAP were compared following oral administration to rats.

Data set [6] concerns rats. The note with it: long term (2 years); cited from earlier work.
The conditions of data set [7]: cited from earlier work.
The test system of a further data set is mammalian cells. The note with it: cited from earlier work.
Another data set concerns rabbits. The note with it: 39 mg/kg/day; cited from earlier work.
Data set [8] relates to rats. Particulars: doses up to 50 mg/kg/day or 110 mg/kg/day; cited from earlier work.
In a further data set the test system is bacteria. The note with it: cited from earlier work.
In the next data set the test system is mice. Particulars: i.p.; cited from earlier work.
Data set [9] relates to rats. Particulars: cited from earlier work.

In brackets after ≈: the same amount, converted by molar mass. Where two headings read alike, the source gives them in different places. A value given as a limit tells only on which side of the number the result lay.

Consider `CCOC(=O)Nc1ccc(/N=N/c2ccccc2)c(N)n1` [Ethylcarbamyl-PAP, Ethylcarbamyl-Phenazopyridine], for which the solubility in [1] is less than 100 µg/mL.

On to `NCC(=O)Nc1ccc(/N=N/c2ccccc2)c(N)n1` [Gly-PAP, Glycyl-Phenazopyridine (6-N-Glycylphenazopyridine)], for which the Observations of vomitus entry in the data set with dogs is “single observation of vomitus”. The solubility in data set [1] is greater than 2000 µg/mL. The “Amount of phenazopyridine delivered to the urine” value in [2] (8.1 mg/kg Gly-PAP versus equivalent phenazopyridine HCl, urine 0 to 24 hours) is listed as “a greater amount of phenazopyridine was delivered to the urine”. Also, the “Exposure (AUC0-24) to Gly-PAP relative to that for phenazopyridine” value in data set [2] (Gly-PAP 8.1 mg/kg) is on record as “less than 10%”. In addition, the “Plasma Tmax for phenazopyridine (comparison)” value in data set [2] (Gly-PAP compared to phenazopyridine HCl) was “increased”. Further, in data set [3] (0.6 versus 2.5 mg/kg phenazopyridine base), the “AUC of phenazopyridine from 0.9 mg/kg Gly-PAP versus 2.8 mg/kg phenazopyridine HCl” value is “approximately equal AUC”. Besides, the “Plasma levels of Gly-PAP relative to those for phenazopyridine from Gly-PAP” value in data set [3] (Gly-PAP 4.0 mg/kg) is reported as less than 5%.

With `CSCC[C@H](N)C(=O)Nc1ccc(/N=N/c2ccccc2)c(N)n1` [Methionyl-PAP, Methionyl-Phenazopyridine], the solubility in data set [1] is 1000 µg/mL (≈ 2900 µM).

As for `Nc1nc(NC(=O)OCc2ccccc2)ccc1/N=N/c1ccccc1` [Benzylcarbamyl-PAP, Benzylcarbamyl-Phenazopyridine], the solubility in data set [1] is less than 100 µg/mL.

With `C[C@H](N)C(=O)Nc1ccc(/N=N/c2ccccc2)c(N)n1` [Alanyl-PAP, Alanyl-Phenazopyridine], in data set [1], the solubility was 2000 µg/mL (≈ 7030 µM).

In the case of phenazopyridine hydrochloride [PAP•HCl], the Observations of vomitus result in the data set with dogs is “four observations of vomitus”. Moreover, the Tmax in [4] (fasted rats, single oral gavage) was less than 60 min; in [5] it was 15 min. Moreover, the AUC0-24 in data set [4] (fasted rats, single oral gavage, 0-24 hr) stood at 182 ± 12 ng·h/mL. In the data set on female mice, the “Tumour induction on lifetime administration” value was “caused hepatocellular adenomas and carcinomas”. Further, in [1], the “Solubility in 0.1N HCl” value turned out to be 500 µg/mL. Further, the “Plasma bioavailability of phenazopyridine” value in data set [2] (phenazopyridine HCl versus equivalent Gly-PAP) is on record as “greater plasma bioavailability”. In addition, the AUC0-6 in [5] (SD printed in the row below) was found to be 105 ng·h/mL. The Cmax in data set [5] (water vehicle (0.1N HCl for free base)) stood at 58 ng/mL. Besides, in the data set with rats [6], the “Tumour induction on long term administration” value was “induced adenomas and adenocarcinomas in the large intestine”.

As for `Nc1nc(NC(=O)[C@@H](N)Cc2c[nH]cn2)ccc1/N=N/c1ccccc1` [Histidinyl-PAP, Histidinyl-Phenazopyridine], the solubility in data set [1] was greater than 10000 µg/mL.

For the molecule `CC(C)COC(=O)Nc1ccc(/N=N/c2ccccc2)c(N)n1` [Isobutylcarbamyl-PAP, Isobutylcarbamyl-Phenazopyridine], the “Tmax” value in data set [4] (rats, oral) is reported as “longer”. The solubility in [1] was less than 100 µg/mL.

With `CC(C)[C@H](N)C(=O)Nc1ccc(/N=N/c2ccccc2)c(N)n1` [Valyl-PAP, Valyl-Phenazopyridine], in data set [1], the solubility was greater than 2500 µg/mL.

Consider `NCCCC[C@H](N)C(=O)Nc1ccc(/N=N/c2ccccc2)c(N)n1` [Lysyl-PAP, Lysyl-Phenazopyridine], for which, in data set [1], the solubility is greater than 2500 µg/mL.

For `Nc1ccc(/N=N/c2ccccc2)c(N)n1` [Phenazopyridine], the “Excreted unchanged in urine” value in [7] (oral) was “up to 65%”. In data set [7] (within 24 hours), the “Single dose cleared within 24 hours” value is recorded as “approximately 90%”. Moreover, the Mutagenicity and clastogenicity entry with mammalian cells is “mutagenic and clastogenic”. Further, the “Effects on fertility or embryo-fetal development” value in the data set with rabbits and in the data set with rats [8] was “no effects on fertility or embryo-fetal development” throughout. Moreover, the Mutagenicity entry in the data set on bacteria was “mutagenic”. For the same molecule, the results for the “Acute toxicity LD50” value in the data set on mice, in the data set on rats [9] (i.p.) and with rats [9] (oral) were 180 mg/kg, 200 mg/kg and 472 mg/kg, respectively.

`Nc1nc(NC(=O)[C@@H](N)Cc2c[nH]c3ccccc23)ccc1/N=N/c1ccccc1` [Tryptophanyl-PAP, Tryptophanyl-Phenazopyridine]: in data set [4] (rats, oral), the “Tmax” value is on record as “longer”. Also, in [1], the solubility is 500 µg/mL (≈ 1250 µM).
